For 20 compounds, TGI and GI50 results are on record in PubChem BioAssay (NCI).

Among the test systems are M19-MEL melanoma; DLD-1 colon; DMS 114 small cell lung; DMS 273 small cell lung; LXFL 529 NSCLC; HOP-18 NSCLC; MCF7 breast; PC-3 prostate; T-47D breast; DU-145 prostate; HS 578T breast; BT-549 breast; MDA-MB-231 breast.
Assay in all cases: growth of human tumour cells (NCI), 48 h

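All cell lines were grown in 96-well plates and treated with compound for 48 hours. At the GI50, growth is halved. TGI: concentration producing complete growth inhibition.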 *1 amine or outer side, *2 acyl side, *3 side chain or, on linkers, in order; H or OH if unused. Where a SMILES comes first, the peptide text is derived from it. Bridges are numbered along the chain shown (N, C = ends). [ ]: non-standard residue; d: D form. The star is where a group is joined. X19 = O=C([C@H](N[*:1])c1ccc(O[C@H]2O[C@@H](CO)[C@@H](O)[C@@H](O)[C@H]2O[C@@H]2O[C@H](CO)[C@H](O)[C@H](O)[C@@H]2O)cc1)[*:2]; X18 = NC(=O)[C@@H](O[*:3])[C@H](N[*:1])C(=O)[*:2]; X20 = O=C([C@H](N[*:1])c1ccc(O)c(Cl)c1)[*:2]; d(aThr) = C[C@@H](O)[C@@H](N)C(=O)O; dHpg = N[C@@H](C(=O)O)c1ccc(O)cc1; X17 = CC(C)C/C=C/C=C/C(=O)*; dOrn = NCCC[C@@H](N)C(=O)O

On to `Cc1[nH]c2ccccc2c1C1CC(=O)NC1=O` (configuration not stated), for which the TGI with M19-MEL melanoma, in the experiment on DLD-1 colon, in the experiment on DMS 114 small cell lung and in the experiment with DMS 273 small cell lung was > 100 µM each time.
With `CC(C)Cc1ccc(C(C)/C=C2\CCC(CN3CCCC3)C2=O)cc1` (configuration not stated), the TGI in the experiment with LXFL 529 NSCLC came to 4.77 µM; in the experiment with HOP-18 NSCLC, 33.4 µM; with M19-MEL melanoma it was 13.7 µM; in the experiment on DLD-1 colon, 6.67 µM; with DMS 114 small cell lung, 12.2 µM; in the experiment with DMS 273 small cell lung, 14.5 µM.
In the case of `CC(C)c1cccc(C(C)C)c1N=C(N)C#N`, the TGI in the experiment on LXFL 529 NSCLC is > 100 µM; in the experiment with HOP-18 NSCLC, > 100 µM; with M19-MEL melanoma it was > 100 µM; with DLD-1 colon, > 65.6 µM; in the experiment on DMS 114 small cell lung, > 59.2 µM; with DMS 273 small cell lung, > 56.9 µM.
For the compound `C[C@@H](NC1CCC[C@@H]1O)c1ccccc1` (some centres not stated), the TGI with LXFL 529 NSCLC, in the experiment on HOP-18 NSCLC, in the experiment on M19-MEL melanoma, in the experiment on DLD-1 colon, with DMS 114 small cell lung and in the experiment with DMS 273 small cell lung was > 100 µM each time.
Turning to `c1ccc2c(c1)nnn2CNc1ccc(N2CCOCC2)cc1`, the TGI in the experiment with LXFL 529 NSCLC, in the experiment with HOP-18 NSCLC, with M19-MEL melanoma, in the experiment on DLD-1 colon, with DMS 114 small cell lung and in the experiment with DMS 273 small cell lung was > 100 µM throughout.
In the case of `CC1=C2C(=O)C(C)(C)C=C2C(=O)[C@](C)(O)C12CC2`, the TGI is > 1 µM in the experiment on LXFL 529 NSCLC; > 1 µM in the experiment on HOP-18 NSCLC; > 1 µM in the experiment with M19-MEL melanoma; > 1 µM in the experiment with DLD-1 colon; > 0.464 µM with DMS 273 small cell lung.
With `C/C(=N\NS(=O)(=O)c1ccc(C)cc1)c1c(O)cc(C)oc1=O`, the TGI with LXFL 529 NSCLC, in the experiment with HOP-18 NSCLC, in the experiment on M19-MEL melanoma and in the experiment with DLD-1 colon was > 100 µM in each case.
For the compound `CCC(O)(c1ccc(OC)cc1)C(c1ccc(OCc2ccccc2)cc1)c1ccc(OCc2ccccc2)cc1` (configuration not stated), the TGI with LXFL 529 NSCLC, with M19-MEL melanoma, in the experiment on DLD-1 colon, in the experiment on DMS 114 small cell lung and in the experiment on DMS 273 small cell lung was > 100 µM in each case.
Regarding `CC(C(=O)c1ccccc1)C1(O)C(=O)Nc2ccccc21` (configuration not stated), the TGI with HOP-18 NSCLC, with M19-MEL melanoma, in the experiment with DLD-1 colon, in the experiment on DMS 114 small cell lung and in the experiment on DMS 273 small cell lung was > 100 µM throughout.
For the compound `CCCC1C(=O)C(CC)Cc2c(OC)ccc(OC)c21` (configuration not stated), the TGI in the experiment with LXFL 529 NSCLC, with M19-MEL melanoma, in the experiment on DLD-1 colon and in the experiment with DMS 273 small cell lung was > 100 µM each time.
Turning to `C[C@]12CC(C#N)C(=O)C(O)=C1CC[C@@H]1C2CC[C@@]2(C)C1CC[C@@H]2O` (some centres not stated), the TGI in the experiment with LXFL 529 NSCLC, in the experiment with DLD-1 colon, in the experiment with DMS 114 small cell lung and in the experiment with DMS 273 small cell lung was > 100 µM throughout.
In the case of `CC1Cc2c(N)nc(N3CCOCC3)nc2NC1=O` (configuration not stated), the TGI in the experiment with HOP-18 NSCLC, in the experiment on M19-MEL melanoma, with DLD-1 colon, in the experiment on DMS 114 small cell lung and in the experiment on DMS 273 small cell lung was > 100 µM in each case.
In the case of `N#CC(C(=O)CCC(=O)Nc1ccc(Cl)cc1)c1ccccc1Cl` (configuration not stated), the TGI in the experiment on LXFL 529 NSCLC, in the experiment with M19-MEL melanoma, in the experiment on DLD-1 colon, with DMS 114 small cell lung and in the experiment on DMS 273 small cell lung was > 100 µM in each case.
With `CCN(CC)C(=O)CNC(=O)OC(C)(C)C`, the TGI with M19-MEL melanoma, in the experiment with DLD-1 colon, with DMS 114 small cell lung and in the experiment on DMS 273 small cell lung was > 100 µM in each case.
In the case of `CCCCCCCC(=O)OCC1OC(n2cc(F)c(=O)[nH]c2=O)C(NC(=O)OCc2ccccc2)C(OC(=O)CCCCCCC)C1O` (configuration not stated), the TGI in the experiment on LXFL 529 NSCLC was > 100 µM; in the experiment on M19-MEL melanoma it was 54.6 µM; with DMS 114 small cell lung, > 100 µM; in the experiment with DMS 273 small cell lung it was 54.7 µM.
Regarding `NNC(=O)CCC(=O)Nc1ccc(Cl)cc1Cl`, the TGI in the experiment with LXFL 529 NSCLC, in the experiment on M19-MEL melanoma, with DLD-1 colon, in the experiment with DMS 114 small cell lung and in the experiment with DMS 273 small cell lung was > 100 µM throughout.
`CC(=O)NC1C(OCc2ccccc2)OC(COC(=O)CCCCCNc2ccc([N+](=O)[O-])c3[nH]c4ccc(O)cc4c(=O)c23)C(O)C1OC(C)C(=O)N[C@@H](C)C(=O)N[C@H](CCC(=O)OCc1ccccc1)C(N)=O` (some centres not stated): the TGI amounted to 3.85 µM with LXFL 529 NSCLC; 10.6 µM in the experiment with HOP-18 NSCLC; 33.3 µM with M19-MEL melanoma; 10 µM with DLD-1 colon; 6.03 µM in the experiment with DMS 273 small cell lung.
Regarding `CCOC(=O)CNC1C(NC(C)=O)C(OC)OC2COC(c3ccccc3)OC21` (configuration not stated), the TGI in the experiment on LXFL 529 NSCLC, in the experiment on HOP-18 NSCLC, with M19-MEL melanoma, in the experiment with DMS 114 small cell lung and in the experiment on DMS 273 small cell lung was > 100 µM in each case.
In the case of `CC(C)C/C=C/C=C/C(=O)N[C@@H](CC(N)=O)C(=O)N[C@@H]1C(=O)N[C@H](c2ccc(O)cc2)C(=O)N[C@H](CCCN)C(=O)N[C@H]([C@@H](C)O)C(=O)N[C@H](c2ccc(O)cc2)C(=O)N[C@H](c2ccc(O)cc2)C(=O)N[C@H]([C@H](C)O)C(=O)N[C@H](Cc2ccccc2)C(=O)N[C@H](CCCN)C(=O)N[C@H](c2ccc(O[C@H]3O[C@@H](CO)[C@@H](O)[C@@H](O)[C@H]3O[C@@H]3O[C@H](CO)[C@H](O)[C@H](O)[C@@H]3O)cc2)C(=O)N[C@H]([C@H](C)O)C(=O)N[C@H](c2ccc(O)cc2)C(=O)NCC(=O)N[C@H](CC(C)C)C(=O)N[C@H](C)C(=O)N[C@H](c2ccc(O)c(Cl)c2)C(=O)O[C@@H]1C(N)=O` (X17-N[X18][dHpg][dOrn][d(aThr)][dHpg][dHpg][dT][dF][dOrn][X19][dT][dHpg]G[dL][dA][X20]; ester 2-C), the GI50 in the experiment with MCF7 breast was 31.9 µM; in the experiment with PC-3 prostate it was 44 µM; in the experiment with T-47D breast, 34.6 µM; with DU-145 prostate it was 37.4 µM; with HS 578T breast, 27.8 µM; with BT-549 breast, 37.6 µM. For the same compound, in the experiment with MDA-MB-231 breast, the GI50 is 16.1 µM. For the same compound, the TGI in the experiment on MCF7 breast was 94.7 µM; in the experiment with PC-3 prostate, > 100 µM; with T-47D breast it was 98.9 µM; with DU-145 prostate, > 100 µM; in the experiment with HS 578T breast, 82.1 µM; with BT-549 breast, 87.1 µM. For the same compound, the TGI in the experiment on MDA-MB-231 breast turned out to be 39.6 µM.
With `COc1cc2ccc(/C(C)=N/OC(C)=O)cc2cc1OC`, the TGI in the experiment on LXFL 529 NSCLC, in the experiment on HOP-18 NSCLC, in the experiment with M19-MEL melanoma, in the experiment on DMS 114 small cell lung and in the experiment on DMS 273 small cell lung was > 100 µM in each case.
